Results reported in PubChem BioAssay (NCI).
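How tested: cells in 96-well plates exposed to compound for 48 hours at five concentrations. Here, GI50 denotes the concentration required for 50% inhibition of growth. TGI: total growth inhibition.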

Experiments:
Assay in all cases: NCI anticancer screen, dose series, 48 h
786-0 renal = test system: 786-0 renal
HOP-92 NSCLC = test system: HOP-92 NSCLC
KM12 colon = test system: KM12 colon
SF-295 CNS = test system: SF-295 CNS
M14 melanoma = test system: M14 melanoma
EKVX NSCLC = test system: EKVX NSCLC
OVCAR-8 ovarian = test system: OVCAR-8 ovarian
NCI-H23 lung = test system: NCI-H23 lung
U251 CNS = test system: U251 CNS
IGROV1 ovarian = test system: IGROV1 ovarian
HL-60(TB) leukemia = test system: HL-60(TB) leukemia
MOLT-4 leukemia = test system: MOLT-4 leukemia
SF-539 CNS = test system: SF-539 CNS
NCI-H460 lung = test system: NCI-H460 lung
RPMI-8226 leukemia = test system: RPMI-8226 leukemia
COLO 205 colon = test system: COLO 205 colon
LXFL 529 NSCLC = test system: LXFL 529 NSCLC
A549 NSCLC = test system: A549 NSCLC
MALME-3M melanoma = test system: MALME-3M melanoma
HCT-116 colon = test system: HCT-116 colon
K-562 leukemia = test system: K-562 leukemia
UACC-62 melanoma = test system: UACC-62 melanoma
CCRF-CEM leukemia = test system: CCRF-CEM leukemia
SK-MEL-5 melanoma = test system: SK-MEL-5 melanoma
HCT-15 colon = test system: HCT-15 colon
SK-MEL-28 melanoma = test system: SK-MEL-28 melanoma
A498 renal = test system: A498 renal
LOX IMVI melanoma = test system: LOX IMVI melanoma
RXF 393 renal = test system: RXF 393 renal
HT29 colon = test system: HT29 colon
SK-MEL-2 melanoma = test system: SK-MEL-2 melanoma
SN12C renal = test system: SN12C renal
SNB-78 CNS = test system: SNB-78 CNS
SNB-75 CNS = test system: SNB-75 CNS
HCC-2998 colon = test system: HCC-2998 colon
TK-10 renal = test system: TK-10 renal
CAKI-1 renal = test system: CAKI-1 renal
ACHN renal = test system: ACHN renal
SW-620 colon = test system: SW-620 colon
UO-31 renal = test system: UO-31 renal
NCI-H226 lung = test system: NCI-H226 lung
KM20L2 colon = test system: KM20L2 colon
UACC-257 melanoma = test system: UACC-257 melanoma
HOP-62 NSCLC = test system: HOP-62 NSCLC
OVCAR-5 ovarian = test system: OVCAR-5 ovarian
SK-OV-3 ovarian = test system: SK-OV-3 ovarian
OVCAR-4 ovarian = test system: OVCAR-4 ovarian
SF-268 CNS = test system: SF-268 CNS
DLD-1 colon = test system: DLD-1 colon
OVCAR-3 ovarian = test system: OVCAR-3 ovarian
M19-MEL melanoma = test system: M19-MEL melanoma
DMS 114 small cell lung = test system: DMS 114 small cell lung
NCI-H522 lung = test system: NCI-H522 lung
SNB-19 CNS = test system: SNB-19 CNS
XF 498 CNS = test system: XF 498 CNS
DMS 273 small cell lung = test system: DMS 273 small cell lung

N.N.N.N.N.O=S(=O)([O-])C(F)(F)F.O=S(=O)([O-])C(F)(F)F.[Os+8]
GI50 (786-0 renal): 4.2 µM
TGI (786-0 renal): 16.4 µM
GI50 (HOP-92 NSCLC): 14.8 µM
TGI (HOP-92 NSCLC): 35.8 µM
GI50 (KM12 colon): 13.7 µM
TGI (KM12 colon): 35 µM
GI50 (SF-295 CNS): 8.07 µM
TGI (SF-295 CNS): 62.8 µM
GI50 (M14 melanoma): 14.2 µM
TGI (M14 melanoma): 28.7 µM
GI50 (EKVX NSCLC): 43.6 µM
TGI (EKVX NSCLC): > 100 µM
GI50 (OVCAR-8 ovarian): 13.5 µM
TGI (OVCAR-8 ovarian): 86.7 µM
GI50 (NCI-H23 lung): 5.07 µM
TGI (NCI-H23 lung): 19.1 µM
GI50 (U251 CNS): 9.22 µM
TGI (U251 CNS): 32.5 µM
GI50 (IGROV1 ovarian): 21.3 µM
TGI (IGROV1 ovarian): 64.1 µM
GI50 (HL-60(TB) leukemia): 8.92 µM
TGI (HL-60(TB) leukemia): 36.2 µM
GI50 (MOLT-4 leukemia): 0.876 µM
TGI (MOLT-4 leukemia): 14.7 µM
GI50 (SF-539 CNS): 4.26 µM
TGI (SF-539 CNS): 16.2 µM
GI50 (NCI-H460 lung): 5.21 µM
TGI (NCI-H460 lung): > 100 µM
GI50 (RPMI-8226 leukemia): 8.7 µM
TGI (RPMI-8226 leukemia): > 100 µM
GI50 (COLO 205 colon): 10.9 µM
TGI (COLO 205 colon): 25.4 µM
GI50 (LXFL 529 NSCLC): 9.12 µM
TGI (LXFL 529 NSCLC): 23.8 µM
GI50 (A549 NSCLC): 24.2 µM
TGI (A549 NSCLC): > 100 µM
GI50 (MALME-3M melanoma): 4.53 µM
TGI (MALME-3M melanoma): 19.9 µM
GI50 (HCT-116 colon): 5.37 µM
TGI (HCT-116 colon): 18 µM
GI50 (K-562 leukemia): 7.51 µM
TGI (K-562 leukemia): 61.5 µM
GI50 (UACC-62 melanoma): 12.1 µM
TGI (UACC-62 melanoma): 28.2 µM
GI50 (CCRF-CEM leukemia): 6.89 µM
TGI (CCRF-CEM leukemia): 40.6 µM
GI50 (SK-MEL-5 melanoma): 15 µM
TGI (SK-MEL-5 melanoma): 34.1 µM
GI50 (HCT-15 colon): 17 µM
TGI (HCT-15 colon): 56.4 µM
GI50 (SK-MEL-28 melanoma): 10.8 µM
TGI (SK-MEL-28 melanoma): 30.2 µM
GI50 (A498 renal): 12 µM
TGI (A498 renal): 29.5 µM
GI50 (LOX IMVI melanoma): 4.74 µM
TGI (LOX IMVI melanoma): 20 µM
GI50 (RXF 393 renal): 5.37 µM
TGI (RXF 393 renal): 18.7 µM
GI50 (HT29 colon): 15.4 µM
TGI (HT29 colon): 55.3 µM
GI50 (SK-MEL-2 melanoma): 11.7 µM
TGI (SK-MEL-2 melanoma): 24.7 µM
GI50 (SN12C renal): 12.7 µM
TGI (SN12C renal): 37.3 µM
GI50 (SNB-78 CNS): 6.19 µM
TGI (SNB-78 CNS): 77.6 µM
GI50 (SNB-75 CNS): 11.1 µM
TGI (SNB-75 CNS): 28.5 µM
GI50 (HCC-2998 colon): 7.02 µM
TGI (HCC-2998 colon): 20.2 µM
GI50 (TK-10 renal): 33 µM
TGI (TK-10 renal): 95.4 µM
GI50 (CAKI-1 renal): 6.61 µM
TGI (CAKI-1 renal): 30.6 µM
GI50 (ACHN renal): 19.8 µM
TGI (ACHN renal): > 100 µM
GI50 (SW-620 colon): 8.48 µM
TGI (SW-620 colon): 41.4 µM
GI50 (UO-31 renal): 12.8 µM
TGI (UO-31 renal): 30.7 µM
GI50 (NCI-H226 lung): 2.59 µM
TGI (NCI-H226 lung): 8.69 µM
GI50 (KM20L2 colon): 20.7 µM
TGI (KM20L2 colon): 45.3 µM
GI50 (UACC-257 melanoma): 22.2 µM
TGI (UACC-257 melanoma): > 100 µM
GI50 (HOP-62 NSCLC): 6.34 µM
TGI (HOP-62 NSCLC): 20 µM
GI50 (OVCAR-5 ovarian): 15.4 µM
TGI (OVCAR-5 ovarian): 31.9 µM
GI50 (SK-OV-3 ovarian): 20.6 µM
TGI (SK-OV-3 ovarian): 60.2 µM

CC1=NN(C(=O)c2ccc(Cl)cc2)C(=O)/C1=C/c1ccc(Cl)cc1
TGI (786-0 renal): > 100 µM
TGI (HOP-92 NSCLC): > 100 µM
TGI (KM12 colon): > 100 µM
TGI (OVCAR-4 ovarian): > 100 µM
TGI (SF-295 CNS): > 100 µM
TGI (M14 melanoma): > 100 µM
TGI (SF-268 CNS): > 100 µM
TGI (EKVX NSCLC): > 100 µM
TGI (OVCAR-8 ovarian): > 100 µM
TGI (NCI-H23 lung): > 100 µM
TGI (DLD-1 colon): > 100 µM
TGI (U251 CNS): > 100 µM
TGI (IGROV1 ovarian): > 100 µM
TGI (HL-60(TB) leukemia): > 100 µM
TGI (MOLT-4 leukemia): > 100 µM
TGI (SF-539 CNS): > 100 µM
TGI (NCI-H460 lung): > 100 µM
TGI (RPMI-8226 leukemia): > 100 µM
TGI (COLO 205 colon): > 100 µM
TGI (LXFL 529 NSCLC): > 100 µM
TGI (A549 NSCLC): > 100 µM
TGI (MALME-3M melanoma): > 100 µM
TGI (OVCAR-3 ovarian): > 100 µM
TGI (HCT-116 colon): > 100 µM
TGI (M19-MEL melanoma): > 100 µM
TGI (K-562 leukemia): > 100 µM
TGI (UACC-62 melanoma): > 100 µM
TGI (CCRF-CEM leukemia): > 100 µM
TGI (SK-MEL-5 melanoma): > 100 µM
TGI (DMS 114 small cell lung): > 100 µM
TGI (NCI-H522 lung): > 100 µM
TGI (SK-MEL-28 melanoma): > 100 µM
TGI (A498 renal): > 100 µM
TGI (LOX IMVI melanoma): > 100 µM
TGI (RXF 393 renal): > 100 µM
TGI (HT29 colon): > 100 µM
TGI (SNB-19 CNS): > 100 µM
TGI (SK-MEL-2 melanoma): > 100 µM
TGI (SN12C renal): > 100 µM
TGI (SNB-78 CNS): > 100 µM
TGI (HCC-2998 colon): > 100 µM
TGI (TK-10 renal): > 100 µM
TGI (CAKI-1 renal): > 100 µM
TGI (ACHN renal): > 100 µM
TGI (SW-620 colon): > 100 µM
TGI (UO-31 renal): > 100 µM
TGI (XF 498 CNS): > 100 µM
TGI (KM20L2 colon): > 100 µM
TGI (UACC-257 melanoma): > 100 µM
TGI (HOP-62 NSCLC): > 100 µM
TGI (OVCAR-5 ovarian): > 100 µM
TGI (SK-OV-3 ovarian): > 100 µM

Nc1ccc(C(=O)NN2C(=O)C(Cl)C2c2cccc(O)c2)cc1 (stereo not drawn)
TGI (786-0 renal): 29.5 µM
TGI (HOP-92 NSCLC): 35.4 µM
TGI (KM12 colon): 22.5 µM
TGI (OVCAR-4 ovarian): 34 µM
TGI (SF-295 CNS): 35.2 µM
TGI (M14 melanoma): 35.2 µM
TGI (SF-268 CNS): 17 µM
TGI (EKVX NSCLC): 46.6 µM
TGI (OVCAR-8 ovarian): 54.4 µM
TGI (NCI-H23 lung): 33.2 µM
TGI (DLD-1 colon): 28.4 µM
TGI (U251 CNS): 25.2 µM
TGI (IGROV1 ovarian): 28.6 µM
TGI (HL-60(TB) leukemia): 8.76 µM
TGI (MOLT-4 leukemia): 41.1 µM
TGI (SF-539 CNS): 31.6 µM
TGI (NCI-H460 lung): 29.7 µM
TGI (RPMI-8226 leukemia): 41.7 µM
TGI (COLO 205 colon): 34.6 µM
TGI (LXFL 529 NSCLC): 24.3 µM
TGI (A549 NSCLC): 39.3 µM
TGI (MALME-3M melanoma): 36.7 µM
TGI (OVCAR-3 ovarian): 29.9 µM
TGI (HCT-116 colon): 25.8 µM
TGI (M19-MEL melanoma): 38.3 µM
TGI (K-562 leukemia): 44.5 µM
TGI (UACC-62 melanoma): 32 µM
TGI (CCRF-CEM leukemia): 28.9 µM
TGI (SK-MEL-5 melanoma): 31.7 µM
TGI (DMS 114 small cell lung): 19.9 µM
TGI (NCI-H522 lung): 3.29 µM
TGI (HCT-15 colon): 25.3 µM
TGI (SK-MEL-28 melanoma): 31.9 µM
TGI (A498 renal): 58.1 µM
TGI (LOX IMVI melanoma): 16.2 µM
TGI (HT29 colon): 35.2 µM
TGI (SNB-19 CNS): 30.5 µM
TGI (SK-MEL-2 melanoma): 30.5 µM
TGI (SN12C renal): 32.3 µM
TGI (SNB-78 CNS): 40.2 µM
TGI (SNB-75 CNS): 56.1 µM
TGI (HCC-2998 colon): 29.8 µM
TGI (TK-10 renal): 30.5 µM
TGI (DMS 273 small cell lung): 23.3 µM
TGI (CAKI-1 renal): 41.9 µM
TGI (ACHN renal): 37.9 µM
TGI (SW-620 colon): 36.6 µM
TGI (UO-31 renal): 35 µM
TGI (NCI-H226 lung): 41.4 µM
TGI (KM20L2 colon): 31.8 µM
TGI (UACC-257 melanoma): 41.7 µM
TGI (HOP-62 NSCLC): 30.7 µM
TGI (OVCAR-5 ovarian): 41.9 µM
TGI (SK-OV-3 ovarian): 34.3 µM
